Format in all cases: functional
Assay [1] has as its system K562. Briefly: Cytotoxicity against Homo sapiens (human) K562 cells assessed as growth inhibition at 2 ug/ml after 24 hr by MTT assay relative to untreated control. To be noted: K562, 24 h, read-out: GI. (Tetrazolium dyes change colour on reduction, which living cells bring about.)
For assay [2], the system named is K562. Briefly: Cytotoxicity against Homo sapiens (human) K562 cells assessed as growth inhibition at 2 ug/ml after 48 hr by MTT assay relative to untreated control. The settings on record: K562, 48 h, read-out: GI.
For assay [3], the system named is U-937. Briefly: Cytotoxicity against Homo sapiens (human) U937 cells assessed as growth inhibition at 2 ug/ml after 48 hr by MTT assay relative to untreated control. To be noted: U-937, 48 h, read-out: GI.
Assay [4] relates to U-937. The assay is described as follows: Cytotoxicity against Homo sapiens (human) U937 cells assessed as growth inhibition at 2 ug/ml after 24 hr by MTT assay relative to untreated control. To be noted: U-937, 24 h, read-out: GI.

SMILES strings stand for the structures.

Regarding `Nc1ccn([C@@H]2O[C@H](CO)[C@@H](O)[C@@H]2O)c(=O)n1` [CYTARABINE], the inhibition of growth at 2 µg/mL in the assay with K562 [1] worked out at 39.9%; in the assay with K562 [2], 65.1%; in the assay with U-937 [3] it was 85.1%; in the assay with U-937 [4] it was 59.9%.
